Assay results taken from patent US11339111B2, “Polyketide compound and derivatives thereof for use in the prevention and treatment of a neurological disorder” (SOCIETE DES PRODUITS NESTLE S.A., priority 2017, dated 2022).
pEC50, pIC50: −log10 of the molar value. Like-named read-outs stand apart in the source and are kept apart here.

Columns and labels:
[1] = tested on: human iPSc derived into astrocytes; test: Lactate release dose response in human iPSc derived astrocytes; type: cell-based; conditions: 2 hours treatment
Method: Dose response curves were established for compounds identified in the screen to stimulate lactate secretion. The EC50 values for the stimulation of lactate secretion were determined using primary human IPS cell derived astrocytes.
Differentiated human iPSCs (iCell astrocytes, and iCell cardiomyocytes) were obtained from Cellular Dynamics International (CDI, Madison, Wis., USA). iCell astrocytes were cultured in DMEM supplemented with 10% fetal calf serum and N2 complement. iCell cardiomyocytes were maintained in a medium supplied by CDI. Cell cultures were kept in a humidified atmosphere (5% CO2) at 37° C.
Dose response of compounds on lactate release from human iPSc derived into astrocyte fitted with a log (agonist) vs response variable slope to extract efficacy (EC50). Mean±SEM in duplicate.
The unsaturated polyketide/macrocyclic lactone compound mentioned throughout the Examples section is proposed to have the structure corresponding to Compound A as described herein. The toxicity expressed in log IC50 (ATP content after 24 hours compound treatment on human iPSc derived into cardiomyocyte) was compared against the lactate release in log EC50 (lactate secretion after 2 hours compound treatment in human iPSc derived into astrocytes).
Y-axis: relative fluorescence unit, X-axis: logarithm concentration of the compound in mg/ml for fraction and molar for pure compound. […]

[2] = tested on: human iPSc derived into cardiomyocyte; test: Toxicity - ATP content (CellTiter-Glo); type: cell-based; conditions: ATP content after 24 hours
Method: iCell Cardiomyocytes were seeded in 384-well plates. Eight days later cells were treated for 24 hours with compounds. Cell viability was determined by the quantification of intracellular ATP after cell lysis. ATP was used as an indicator of metabolically active cells. ATP was measured using a luminescent cell viability assay (CellTiter-Glo®; […]). Luminescence was measured after 20 min in a Bioteck Synergie Neo multimode reader.
Toxicity of the unsaturated polyketide/macrocyclic lactone compounds were evaluated in human IPS cell derived cardiomyocytes by measuring total ATP in cell lysates.
Dose response of compounds on human iPSc derived into cardiomyocyte with evaluation of the ATP level using cell titer glow. Results were normalized between untreated cells (100%) and positive control (0%).
The unsaturated polyketide/macrocyclic lactone compound mentioned throughout the Examples section is proposed to have the structure corresponding to Compound A as described herein. […]
Y-axis: relative fluorescence unit in percentage, X-axis: logarithm concentration of the compound in mg/ml for fraction and molar for pure compound. […]

Compound `C/C1=C\C(C)C(=O)CC(O)/C(C)=C/C(C)CC(C)CCC(C(C)C(=O)O)OC(=O)C(C)C1` (stereo not shown) has a pEC50 ([1]; pure compound (head: mg/ml or M; molar for pure compound), read-out: Astrocytes Lactate release EC50) of 5.80, an EC50 ([1]; pure compound, log of molar concentration, read-out: Astrocytes Lactate release logEC50 (converted)) of 2000 nM and a pIC50 ([2]; pure compound (molar), read-out: Cardiomyocytes Toxicity IC50) of less than 4.00. It also gave an IC50 ([2]; pure compound, log of molar concentration, read-out: Cardiomyocytes Toxicity log IC50 (converted)) greater than 100000 nM.
